Source: ChEMBL document CHEMBL5120761, “Lanicepines A and B, Sesquiterpenes with Amino Acid-Derived Substituents from the Flowering Aerial Parts of Saussurea laniceps” (J Nat Prod, 2022)

Legend:
Microglia = assay: Anti-inflammatory activity against mouse Microglia cells assessed as reduction in LPS-induced IL-1beta production; format: functional, cell-based
[1] = Cytotoxicity against mouse Microglia cells assessed as reduction in cell viability; format: toxicity, cell-based

| IC50 (Microglia) | SMILES | CC50 [1] |
| --- | --- | --- |
| 54.2 µM | C=C1[C@@H]2[C@H]3OC(=O)[C@@H](C)[C@@H]3[C@@H](O)CC(=C)[C@@H]2C[C@@H]1O | > 100 µM |
| 86.7 µM | C=C1[C@@H]2[C@H]3OC(=O)[C@@H](CN4C=C(C(N)=O)C[C@@H](CO)C4=O)[C@@H]3[C@@H](O)CC(=C)[C@@H]2C[C@@H]1O | > 100 µM |
| 44.5 µM | C=C1[C@@H]2[C@H]3OC(=O)[C@@H](C)[C@@H]3[C@@H](O[C@@H]3O[C@H](CO)[C@@H](O)[C@H](O)[C@H]3O)CC(=C)[C@@H]2C[C@@H]1O | > 100 µM |
| 62.6 µM | C=C1[C@@H]2[C@H]3OC(=O)[C@@H](CNC(=O)[C@H](CO)CN4CCC[C@H]4C(=O)O)[C@@H]3[C@@H](O)CC(=C)[C@@H]2C[C@@H]1O | > 100 µM |
